The test deals with Chaperone protein DnaK (Escherichia coli (strain K12)) (UniProt P0A6Y8). In words: E. coli DnaK SBD ligand binding – biophysical, NMR, chaperone (AID 1033). To be noted: Purified DnaK SBD.

Activity calls are given as the source filed them. The rule behind the calls is not given here.

Chaperone protein DnaK (Escherichia coli (strain K12)), sequence (P0A6Y8 whole entry, looked up): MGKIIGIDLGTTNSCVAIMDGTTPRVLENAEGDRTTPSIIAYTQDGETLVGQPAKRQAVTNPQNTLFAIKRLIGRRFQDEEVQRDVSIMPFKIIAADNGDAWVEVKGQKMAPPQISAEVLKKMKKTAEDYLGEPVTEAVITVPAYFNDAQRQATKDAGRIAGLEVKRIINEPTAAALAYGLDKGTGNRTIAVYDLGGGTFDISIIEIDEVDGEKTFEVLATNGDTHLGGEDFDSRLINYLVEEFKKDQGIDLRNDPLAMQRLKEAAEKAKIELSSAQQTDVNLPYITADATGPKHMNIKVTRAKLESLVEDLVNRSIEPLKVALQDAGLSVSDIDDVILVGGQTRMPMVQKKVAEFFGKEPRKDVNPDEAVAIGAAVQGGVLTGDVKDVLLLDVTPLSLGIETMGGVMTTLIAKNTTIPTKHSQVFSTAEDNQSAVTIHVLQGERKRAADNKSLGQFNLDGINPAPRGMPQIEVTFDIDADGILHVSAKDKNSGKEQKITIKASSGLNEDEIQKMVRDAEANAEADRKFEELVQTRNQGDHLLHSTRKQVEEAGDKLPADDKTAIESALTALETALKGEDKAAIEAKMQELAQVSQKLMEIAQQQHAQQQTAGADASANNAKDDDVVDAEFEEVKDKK

The term Kd denotes the equilibrium constant for the complex coming apart. `CN1C(=O)c2ccc(N3CCCC3)cc2C1=O`: the Kd is > 4 mM (inactive).

`O=C(c1ccncc1)N1CCN(C(=O)c2ccco2)CC1`: the Kd was > 4 mM (inactive).

For `NC(=O)CSc1ccccn1`, the Kd is > 4 mM (inactive).

With `CCOc1ccc(N2C(=O)CCC2=O)cc1`, the Kd is > 4 mM (inactive).

With `C=C1CCC2[C@](C)(CO)[C@H](O)CC[C@@]2(C)[C@@H]1C/C=C1/C(=O)OC[C@H]1O` (stereo partly drawn), the Kd is > 4 mM (inactive).

In the case of `Cc1c(O)c(O)cc2c1CC=C1[C@@]2(C)CC[C@@]2(C)C3C[C@](C)(C(=O)O)CC[C@]3(C)CC[C@]12C` (stereo partly drawn), the Kd is > 4 mM (inactive).

Regarding `O=C(c1ccco1)N1C(=O)c2cccc3cccc1c23`, the Kd is > 4 mM (inactive).

As for `O=C(CSc1ccnc(=O)[nH]1)NCc1ccco1`, the Kd was > 4 mM (inactive).

Take `CCOC(=O)c1ccc2c(c1)nnn2C`: the Kd was > 4 mM (inactive).

As to `Nc1ccc(Cc2ccncc2)cc1`, the Kd is > 4 mM (inactive).

As for `Nc1nc(SCc2ccc3c(c2)OCO3)n[nH]1`, the Kd was > 4 mM (inactive).

Turning to `O=C(Nc1cccc(Cl)c1)c1ccncc1`, the Kd was > 4 mM (inactive).

`Cc1nc(N)sc1C(=O)Nc1nccs1`: the Kd is > 4 mM (inactive).

As to `COCC(=O)OCn1nnc2ccccc2c1=O`, the Kd is > 4 mM (inactive).

Consider `NC1C2CC3CC1CC(O)(C3)C2` (stereo not drawn), for which the Kd is > 4 mM (inactive).

`Cc1cccc(-n2c(N)cc(=O)[nH]c2=S)c1`: the Kd is > 4 mM (inactive).

Regarding `Cc1cc[n+](-c2nc([O-])sc2C=O)cc1`, the Kd is > 4 mM (inactive).

With `CCN1C(=O)c2cccc3c(S(N)(=O)=O)ccc1c23`, the Kd was > 4 mM (inactive).

Regarding `Cc1cc(C(=O)N2CCN(c3ccccn3)CC2)no1`, the Kd is > 4 mM (inactive).

For the molecule `CC(=O)O[C@@H]1CC2C(C)(C)C(=O)C=C[C@]2(C)C2CC[C@]3(C)C(=CC(=O)O[C@H]3c3ccoc3)[C@@]21C` (stereo partly drawn), the Kd is > 4 mM (inactive).

Turning to `CC(C)NS(=O)(=O)c1ccc(N)cc1`, the Kd was > 4 mM (inactive).

For `Nc1nc(CSc2ncn(-c3ccccc3)n2)cs1`, the Kd is > 4 mM (inactive).

Consider `c1ccc2c(c1)[nH]c1cnccc12`, for which the Kd was > 4 mM (inactive).

In the case of `Cn1c(CNc2ccccc2)cc(=O)n(C)c1=O`, the Kd was > 4 mM (inactive).

In the case of `O=C1CSC(=NC(=O)c2ccccc2)N1`, the Kd was > 4 mM (inactive).

With `O=C(NC1CSCC1O)c1ccccc1` (stereo not drawn), the Kd is > 4 mM (inactive).

For `COc1c2ccoc2c(OC)c2oc(=O)ccc12`, the Kd was > 4 mM (inactive).

With `O=C1COc2ccccc2C(=O)N1`, the Kd is > 4 mM (inactive).

Regarding `C=C(C)[C@@H]1[C@H]2OC(=O)[C@@H]1[C@]1(O)C[C@H]3O[C@]34C(=O)O[C@H]2[C@]14C`, the Kd was > 4 mM (inactive).

Turning to `CC(C)CCCC(C)C1CCC2C3CC(=O)[C@H]4C[C@@H](O)CC[C@]4(C)C3CC[C@]12C` (stereo partly drawn), the Kd is > 4 mM (inactive).

`CCC(=O)OC1[C@@H]2CC3=C4CC(=O)O[C@@H](c5ccoc5)[C@]4(C)CCC3C(C)(C2=O)[C@@H](CC(=O)OC)C1(C)C` (stereo partly drawn): the Kd is > 4 mM (inactive).

Regarding `O=C1NC(=S)N/C1=C\c1cccnc1`, the Kd is > 4 mM (inactive).

As to `Cc1ccc(SCC(=O)N2CCOCC2)cc1`, the Kd is > 4 mM (inactive).

With `Cc1cc(NC(=O)c2cccc(S(C)(=O)=O)c2)no1`, the Kd was > 4 mM (inactive).

In the case of `COc1ccc2c(c1)[n+](=O)c(C(C)=O)c(C)n2[O-]`, the Kd is > 4 mM (inactive).

`CC12CNCC(C)(CNC1)C2O` (stereo not drawn): the Kd was > 4 mM (inactive).

Take `O=c1[nH]c2ccc(S(=O)(=O)NC3CC3)cc2[nH]1`: the Kd was > 4 mM (inactive).

As to `CC1(C(=O)O)CC2C=CC1C2` (stereo not drawn), the Kd is > 4 mM (inactive).

On to `Cc1nc(SCC(=O)c2c[nH]c3ccccc23)n[nH]1`, for which the Kd was > 4 mM (inactive).

As to `O=C1CC(=O)N(c2cccc(Cl)c2)N1`, the Kd is > 4 mM (inactive).

For the molecule `Cc1nnc2n(c1=O)N=C(c1ccccc1)CS2`, the Kd is > 4 mM (inactive).

Regarding `Cc1nn2c(-c3ccco3)nnc2c2ccccc12`, the Kd is > 4 mM (inactive).

Turning to `CC[C@H](/C=C/C(C)C1CCC2C3CCC4=CC(=O)CC[C@]4(C)C3CC[C@]12C)C(C)C` (stereo partly drawn), the Kd was > 4 mM (inactive).

On to `O=C(c1cccnc1Cl)N1CCOCC1`, for which the Kd was > 4 mM (inactive).

As to `Cn1c(=O)c2c(ncn2C)n(C)c1=O`, the Kd is > 4 mM (inactive).

Regarding `Cc1occc(=O)c1O`, the Kd is > 4 mM (inactive).

As for `Cc1ccc(NC(=O)C(=O)Nc2ccccn2)cc1`, the Kd was > 4 mM (inactive).

With `Cc1cc(C)nc(N(C#N)Cc2ccccc2)n1`, the Kd is > 4 mM (inactive).

Turning to `COC(=O)c1ccc2nc[nH]c2c1`, the Kd is > 4 mM (inactive).

Consider `CCSc1nc(=S)n(CC)c(C)c1C(C)=O`, for which the Kd was > 4 mM (inactive).

`CCOC(=O)c1csc(N)n1`: the Kd is > 4 mM (inactive).

As for `Nc1nc2[nH]c(=O)c(=O)[nH]c2c(=O)[nH]1`, the Kd was > 4 mM (inactive).

As to `CCN1C[C@@]2(COC)C3[C@@H](OC)[C@H]4[C@@H]1[C@]3(C(OC)C[C@H]2O)C1C[C@@]2(O)[C@H](OC(=O)c3ccccc3)C1[C@]4(OC(C)=O)[C@@H](O)[C@@H]2OC` (stereo partly drawn), the Kd was > 4 mM (inactive).

With `Cc1nc(-c2ccccc2)sc1C(N)=O`, the Kd is > 4 mM (inactive).

Turning to `CCC(=O)Nc1ccccc1NC(C)=O`, the Kd was > 4 mM (inactive).

`O=C(Nc1ccc(Cl)cn1)c1cnn2cccnc12`: the Kd was > 4 mM (inactive).

As for `Cc1cc(C)n(CC(=O)NC2CCCCC2)n1`, the Kd was > 4 mM (inactive).

`Cc1cc2c(=O)n(C)c(SCC(N)=O)nc2s1`: the Kd is > 4 mM (inactive).

Regarding `NC(=O)C1CCN(C(=O)c2ccccc2)CC1`, the Kd was > 4 mM (inactive).

For `CSc1nc2nc(C)cc(=O)n2[nH]1`, the Kd is > 4 mM (inactive).

With `COc1ccc(-c2cc(=O)c3ccccc3o2)cc1`, the Kd is > 4 mM (inactive).

As for `NC(=O)CNC(=O)c1ccccc1`, the Kd was > 4 mM (inactive).

Consider `CC(C)c1nnc(N)s1`, for which the Kd is > 4 mM (inactive).

As for `O=C(/C=C/c1ccco1)NC1=NCCS1`, the Kd is > 4 mM (inactive).

For the molecule `Nc1c(/C=C2\C=Nc3ccccc32)c(=O)nc2scnn12`, the Kd was > 4 mM (inactive).

As to `NCc1csc(-c2ccccc2)n1`, the Kd is > 4 mM (inactive).

Consider `CN1C(=O)C(Cc2c[nH]c3ccccc23)C(=O)N(C)C1=O`, for which the Kd is > 4 mM (inactive).

For the molecule `CC(=O)Nc1ccc(CN2CCOCC2)cc1`, the Kd is > 4 mM (inactive).

On to `O=C1CC(c2ccccc2)n2ncnc2N1` (stereo not drawn), for which the Kd is > 4 mM (inactive).

As for `CS(=O)(=O)Nc1nnc(Cc2ccccc2)s1`, the Kd is > 4 mM (inactive).

On to `c1ccc(Cn2cccc2)nc1`, for which the Kd was > 4 mM (inactive).

Take `O=C(O)CSCC(=O)Nc1cccc(O)c1`: the Kd was > 4 mM (inactive).

Regarding `CN(C)c1n[nH]c(=O)[nH]c1=O`, the Kd was > 4 mM (inactive).

On to `COc1ccc2[nH]c(O)c(NC(C)=O)c2c1`, for which the Kd is > 4 mM (inactive).

For `CCNC(CC(=O)Nc1ccc(O)cc1)C(=O)O` (stereo not drawn), the Kd is > 4 mM (inactive).

`CC(=O)Nc1ccc(Nc2nnc(C)c(=O)[nH]2)cc1`: the Kd is > 4 mM (inactive).

Consider `CC(=O)NC12CC3CC(C)(C1)CC(NC(C)=O)(C3)C2`, for which the Kd was > 4 mM (inactive).

Take `COc1ccc(-c2coc3cc(OC(C)=O)cc(OC(C)=O)c3c2=O)cc1`: the Kd is > 4 mM (inactive).

On to `CC(CO)NC(=O)C1C=C2c3cccc4[nH]cc(c34)C[C@H]2N(C)C1` (stereo partly drawn), for which the Kd is > 4 mM (inactive).

For the molecule `NCc1nc2ccccc2s1`, the Kd was > 4 mM (inactive).

Turning to `Nc1cc(=O)[nH]c(=S)n1-c1cccc(C(F)(F)F)c1`, the Kd was > 4 mM (inactive).

For `Cc1ccc2cccc(OC(=O)N3CCCC3)c2n1`, the Kd was > 4 mM (inactive).

For `Nc1ccc(C2SCCS2)cc1`, the Kd was > 4 mM (inactive).

Turning to `CC(=O)Oc1cc2c(C(C)=O)coc2c2ccccc12`, the Kd is > 4 mM (inactive).

As to `CC1(C)CC2(CCO1)NCCN1C(=O)CSC12` (stereo not drawn), the Kd was > 4 mM (inactive).

In the case of `Cc1ccc(NC(=O)C2CCN(S(C)(=O)=O)CC2)cc1`, the Kd is > 4 mM (inactive).

Turning to `CC(C)=CC(=O)Nc1ccccc1C(N)=O`, the Kd is > 4 mM (inactive).

As for `O=C(CS(=O)(=O)c1ccccc1)N1CCCCCC1`, the Kd was > 4 mM (inactive).

`O=C(O)CC1C(=O)NCCN1Cc1ccccc1` (stereo not drawn): the Kd was > 4 mM (inactive).

Regarding `O=C(NC(=S)NCc1cccnc1)c1ccco1`, the Kd was > 4 mM (inactive).

Turning to `C=C1C(=O)OC2CC1C(OC(C)=O)C/C(C)=C/CC/C(C)=C/CC[C@]2(C)O` (stereo partly drawn), the Kd was > 4 mM (inactive).

Regarding `COc1ccc(O)c(-c2cn[nH]c2-c2cccs2)c1`, the Kd was > 4 mM (inactive).

For `Cn1c(=O)[nH]c(=O)c2nsnc21`, the Kd is > 4 mM (inactive).

Take `CNC(Cc1c[nH]c2ccccc12)C(=O)O` (stereo not drawn): the Kd is > 4 mM (inactive).

As to `O=C(O)c1cc2ccccc2[nH]1`, the Kd was > 4 mM (inactive).

For the molecule `CCNS(=O)(=O)c1ccc(OC)c(C)c1`, the Kd is > 4 mM (inactive).

`O=c1cc(O)n(-c2ccc(F)cc2)c(=S)[nH]1`: the Kd is > 4 mM (inactive).

In the case of `Cn1nnc2c(Cl)ncnc21`, the Kd is > 4 mM (inactive).

On to `CC(C)CCCC(C)C1CCC2C3=CC[C@H]4C[C@@H](O)CC[C@]4(C)C3CC[C@@]21C` (stereo partly drawn), for which the Kd is > 4 mM (inactive).

In the case of `NCc1cccc2c1OCCCO2`, the Kd is > 4 mM (inactive).

Take `O=C(NCC1CCNCC1)c1ccncc1`: the Kd was > 4 mM (inactive).

Take `c1ccc(SCc2nc(-c3cccnc3)no2)cc1`: the Kd is > 4 mM (inactive).

As for `Cc1cc(N)on1`, the Kd is > 4 mM (inactive).

These data come from PubChem BioAssay AID1033 (Sanford-Burnham Center for Chemical Genomics, 2008).
